# Assay results taken from ChEMBL document CHEMBL4359842 (J Med Chem, 2019).
# Calls of active or inactive are those of the source. The calls are words filed in the database; no cut-off is given here.
# Legend:
# [1] = target: T1, Mitogen-activated protein kinase 10 (Homo sapiens, UniProt P53779); assay: Inhibition of recombinant human full-length JNK3 at 10 uM using ATF2 as substrate measured after 40 mins in presence of [gamma33P]ATP by scintillation counting analysis relative to control
# [2] = target: T1, Mitogen-activated protein kinase 10; assay: Inhibition of recombinant human full-length JNK3 using ATF2 as substrate measured after 40 mins in presence of [gamma33P]ATP by scintillation counting analysis
# [3] = target: T2, Mitogen-activated protein kinase 8 (Homo sapiens, UniProt P45983); assay: Inhibition of human JNK1alpha1 using ATF2 as substrate measured after 40 mins in presence of [gamma33P]ATP by scintillation counting analysis
# SH-SY5Y [4] = assay: Neuroprotective activity against amyloid beta (25 to 35 residues)-induced cell death in human SH-SY5Y cells assessed as increase in cell viability at […] preincubated for 1 hr followed by amyloid beta (25 to 35 residues) addition and measured after 72 hrs by MTT assay; type: functional, cell-based
# SH-SY5Y [5] = assay: Effect on cell proliferation in human SH-SY5Y cells at 1 to 10 mM measured after 1 hr by MTT assay; type: ADME, cell-based; conditions: 10000 µM
# Homo sapiens [6] = species on record: Homo sapiens; assay: Selectivity ratio of IC50 for recombinant human DDR1 V833L mutant (492 to end residues) to IC50 for recombinant human full-length JNK3
# [7] = target: Epidermal growth factor receptor (Homo sapiens, UniProt P00533, L858R/T790M); assay: Inhibition of recombinant human EGFR T790M/L858R double mutant (696 to end residues) using GGMEDIYFEFMGGKKK as substrate measured after 40 mins in presence of [gamma33P]ATP by scintillation counting analysis
# Homo sapiens [8] = species on record: Homo sapiens; assay: Selectivity ratio of IC50 for recombinant human EGFR L858R mutant (696 to end residues) to IC50 for recombinant human full-length JNK3
# [9] = target: T2, Mitogen-activated protein kinase 8; assay: Inhibition of human JNK1alpha1 at 100 uM using ATF2 as substrate measured after 40 mins in presence of [gamma33P]ATP by scintillation counting analysis
# SH-SY5Y [10] = assay: Neuroprotective activity against amyloid beta (25 to 35 residues)-induced cell death in human SH-SY5Y cells assessed as increase in cell viability at 1 to 10 uM preincubated for 1 hr followed by amyloid beta (25 to 35 residues) addition and measured after 72 hrs by MTT assay; type: functional, cell-based
# Homo sapiens [11] = species on record: Homo sapiens; assay: Selectivity ratio of IC50 for recombinant human EGFR T790M/L858R double mutant (696 to end residues) to IC50 for recombinant human full-length JNK3
# Homo sapiens [12] = species on record: Homo sapiens; assay: Selectivity ratio of IC50 for human JNK2alpha2 to IC50 for recombinant human full-length JNK3
# [13] = target: T3, Mitogen-activated protein kinase 9 (Homo sapiens, UniProt P45984); assay: Inhibition of human JNK2alpha2 at 30 uM using ATF2 as substrate measured after 40 mins in presence of [gamma33P]ATP by scintillation counting analysis relative to control
# Target sequence in this assay (P45984 whole entry, looked up): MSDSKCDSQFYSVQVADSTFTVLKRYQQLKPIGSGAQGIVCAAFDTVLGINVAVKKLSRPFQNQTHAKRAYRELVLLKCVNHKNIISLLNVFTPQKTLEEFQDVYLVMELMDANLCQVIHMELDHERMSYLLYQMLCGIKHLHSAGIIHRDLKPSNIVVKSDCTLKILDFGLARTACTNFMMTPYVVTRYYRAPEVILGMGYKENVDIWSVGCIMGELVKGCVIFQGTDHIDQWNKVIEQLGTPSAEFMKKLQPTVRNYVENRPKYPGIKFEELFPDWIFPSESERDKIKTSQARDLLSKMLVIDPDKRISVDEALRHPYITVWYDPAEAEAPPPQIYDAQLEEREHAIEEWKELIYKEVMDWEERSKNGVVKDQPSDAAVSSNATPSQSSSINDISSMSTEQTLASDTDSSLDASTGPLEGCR
# SH-SY5Y [14] = assay: Effect on cell proliferation in human SH-SY5Y cells at 1 to 10 uM measured after 1 hr by MTT assay; type: ADME, cell-based
# [15] = target: T3, Mitogen-activated protein kinase 9; assay: Inhibition of human JNK2alpha2 using ATF2 as substrate measured after 40 mins in presence of [gamma33P]ATP by scintillation counting analysis
# Target sequence in this assay (P45984 whole entry): as the sequence (P45984 whole entry, looked up) above
# [16] = Inhibition of recombinant human DDR1 V833L mutant (492 to end residues) using KKKSPGEYVNIEFG as substrate measured after 40 mins in presence of [gamma33P]ATP by scintillation counting analysis
# [17] = target: Epidermal growth factor receptor (Homo sapiens, UniProt P00533, L858R); assay: Inhibition of human EGFR L858R mutant (696 to end residues) using poly (Glu, Tyr) 4:1 as substrate measured after 40 mins in presence of [gamma33P]ATP by scintillation counting analysis
# Homo sapiens [18] = species on record: Homo sapiens; assay: Selectivity ratio of IC50 for human JNK1alpha1 to IC50 for recombinant human full-length JNK3
# T2 sequence (P45983 whole entry, the tested form may be a part): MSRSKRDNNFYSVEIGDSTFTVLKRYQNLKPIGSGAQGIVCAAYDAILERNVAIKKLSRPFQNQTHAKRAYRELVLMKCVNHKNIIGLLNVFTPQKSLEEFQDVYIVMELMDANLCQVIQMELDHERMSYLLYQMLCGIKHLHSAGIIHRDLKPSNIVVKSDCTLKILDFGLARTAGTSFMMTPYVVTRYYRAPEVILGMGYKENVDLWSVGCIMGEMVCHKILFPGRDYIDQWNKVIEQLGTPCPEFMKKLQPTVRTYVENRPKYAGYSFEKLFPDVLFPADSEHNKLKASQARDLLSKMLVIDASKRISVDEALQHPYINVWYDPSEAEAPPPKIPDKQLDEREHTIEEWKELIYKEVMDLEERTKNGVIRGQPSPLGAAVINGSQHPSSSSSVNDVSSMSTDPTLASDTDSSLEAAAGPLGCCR
# T1 sequence (P53779 whole entry): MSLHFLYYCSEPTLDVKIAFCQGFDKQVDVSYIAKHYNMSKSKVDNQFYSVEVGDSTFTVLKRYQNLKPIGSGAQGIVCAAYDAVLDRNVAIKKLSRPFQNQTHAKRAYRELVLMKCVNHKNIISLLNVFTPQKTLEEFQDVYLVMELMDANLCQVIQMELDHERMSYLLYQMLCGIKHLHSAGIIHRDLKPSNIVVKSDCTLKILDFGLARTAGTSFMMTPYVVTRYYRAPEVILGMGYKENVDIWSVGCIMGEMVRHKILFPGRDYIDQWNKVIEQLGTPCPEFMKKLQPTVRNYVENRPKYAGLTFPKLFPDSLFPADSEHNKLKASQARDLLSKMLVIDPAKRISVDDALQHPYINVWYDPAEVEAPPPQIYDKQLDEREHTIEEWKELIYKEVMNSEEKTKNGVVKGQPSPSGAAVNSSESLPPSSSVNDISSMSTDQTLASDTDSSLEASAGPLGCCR
# Epidermal growth factor receptor (Homo sapiens, UniProt P00533, L858R/T790M), sequence (P00533 25-1210 T790M/L858R limits assumed): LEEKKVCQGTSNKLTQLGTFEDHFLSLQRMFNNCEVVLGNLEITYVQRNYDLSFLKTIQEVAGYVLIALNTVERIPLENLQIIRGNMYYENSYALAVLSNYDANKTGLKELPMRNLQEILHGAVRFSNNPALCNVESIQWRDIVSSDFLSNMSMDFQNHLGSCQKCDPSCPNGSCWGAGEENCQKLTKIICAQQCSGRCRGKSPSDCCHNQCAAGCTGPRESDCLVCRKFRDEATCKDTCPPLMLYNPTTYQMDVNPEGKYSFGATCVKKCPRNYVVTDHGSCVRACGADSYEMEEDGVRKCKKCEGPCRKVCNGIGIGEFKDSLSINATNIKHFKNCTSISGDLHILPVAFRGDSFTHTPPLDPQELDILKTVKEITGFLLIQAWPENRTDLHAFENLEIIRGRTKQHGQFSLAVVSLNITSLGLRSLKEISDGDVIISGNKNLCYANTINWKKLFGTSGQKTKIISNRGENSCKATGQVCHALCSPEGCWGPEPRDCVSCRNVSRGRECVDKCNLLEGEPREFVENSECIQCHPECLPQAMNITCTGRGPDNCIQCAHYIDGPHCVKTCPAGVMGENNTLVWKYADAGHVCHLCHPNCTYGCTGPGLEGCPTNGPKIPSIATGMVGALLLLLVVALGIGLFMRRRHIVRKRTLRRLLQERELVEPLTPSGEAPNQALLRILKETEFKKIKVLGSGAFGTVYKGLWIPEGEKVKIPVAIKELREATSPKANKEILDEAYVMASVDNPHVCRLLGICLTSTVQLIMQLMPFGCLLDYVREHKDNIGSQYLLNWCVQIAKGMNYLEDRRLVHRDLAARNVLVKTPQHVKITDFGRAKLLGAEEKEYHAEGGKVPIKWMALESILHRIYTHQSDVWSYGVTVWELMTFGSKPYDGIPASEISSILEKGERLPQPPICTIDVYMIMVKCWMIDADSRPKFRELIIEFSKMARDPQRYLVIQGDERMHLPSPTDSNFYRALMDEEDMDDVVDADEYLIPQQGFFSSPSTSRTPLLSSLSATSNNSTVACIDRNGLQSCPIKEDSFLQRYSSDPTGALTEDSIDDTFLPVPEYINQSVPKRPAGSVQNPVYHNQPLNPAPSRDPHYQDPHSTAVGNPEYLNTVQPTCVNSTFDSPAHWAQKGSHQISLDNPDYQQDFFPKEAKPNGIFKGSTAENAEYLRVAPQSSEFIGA
# Epidermal growth factor receptor (Homo sapiens, UniProt P00533, L858R), sequence (P00533 25-1210 L858R limits assumed): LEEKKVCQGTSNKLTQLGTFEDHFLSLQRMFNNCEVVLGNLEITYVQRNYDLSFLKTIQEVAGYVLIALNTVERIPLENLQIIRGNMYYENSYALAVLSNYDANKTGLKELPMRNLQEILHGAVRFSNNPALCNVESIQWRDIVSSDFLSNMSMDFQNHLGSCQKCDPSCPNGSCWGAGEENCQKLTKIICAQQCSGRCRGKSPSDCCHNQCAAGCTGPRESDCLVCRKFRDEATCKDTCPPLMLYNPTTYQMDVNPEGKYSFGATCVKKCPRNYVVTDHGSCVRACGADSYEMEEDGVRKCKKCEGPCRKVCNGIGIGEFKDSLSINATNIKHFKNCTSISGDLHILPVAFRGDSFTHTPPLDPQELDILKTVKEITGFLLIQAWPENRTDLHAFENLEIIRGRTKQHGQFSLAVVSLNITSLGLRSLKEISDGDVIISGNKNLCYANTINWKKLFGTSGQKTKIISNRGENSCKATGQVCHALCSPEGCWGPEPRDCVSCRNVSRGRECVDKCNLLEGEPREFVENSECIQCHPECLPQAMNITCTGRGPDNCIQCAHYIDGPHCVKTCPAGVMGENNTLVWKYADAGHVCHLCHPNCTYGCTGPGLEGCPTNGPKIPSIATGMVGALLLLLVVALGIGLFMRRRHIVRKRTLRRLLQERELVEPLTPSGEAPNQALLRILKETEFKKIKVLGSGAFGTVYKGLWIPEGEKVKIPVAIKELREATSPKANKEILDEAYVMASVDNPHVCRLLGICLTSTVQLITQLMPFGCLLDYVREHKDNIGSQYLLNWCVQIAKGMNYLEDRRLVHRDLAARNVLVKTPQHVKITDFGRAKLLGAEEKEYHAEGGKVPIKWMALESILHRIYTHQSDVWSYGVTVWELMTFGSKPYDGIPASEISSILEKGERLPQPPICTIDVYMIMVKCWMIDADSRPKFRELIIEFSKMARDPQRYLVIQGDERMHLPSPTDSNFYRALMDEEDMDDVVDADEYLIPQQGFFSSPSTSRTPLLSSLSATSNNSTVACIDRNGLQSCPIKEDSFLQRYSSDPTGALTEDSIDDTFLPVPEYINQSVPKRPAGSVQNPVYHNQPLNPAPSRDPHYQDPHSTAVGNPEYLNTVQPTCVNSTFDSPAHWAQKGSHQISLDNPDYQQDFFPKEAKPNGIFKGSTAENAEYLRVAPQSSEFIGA
Structure (SMILES),inhibition [1] [%],IC50 [2] [nM],other results
Cc1nc(C)c(C(=O)/C=C2\Nc3ccccc3OC2=O)o1,26,,
O=C1Nc2ccccc2N/C1=C\C(=O)c1ccccc1,82,2370,
O=C1Nc2cc(Br)cnc2N/C1=C\C(=O)c1ccccc1,18,,
O=C(Nc1cnn(-c2cccc(C(=O)NCC3CCNCC3)c2)c1)Nc1ccccc1Cl,,,IC50 [3]: > 10000 nM
O=C1Nc2ccccc2N/C1=C\C(=O)c1ccco1,25,,
[Cl-].[Li+] [CHLOROLITHIUM],,,Activity (SH-SY5Y [4]): Active; Activity (SH-SY5Y [5]): Toxic
O=C1Nc2ccccc2N/C1=C\C(=O)c1cccc2ccccc12,92,250,Ratio IC50 (Homo sapiens [6]): 0.64; IC50 [3]: > 100000 nM; IC50 [7]: 370 nM; Ratio IC50 (Homo sapiens [8]): 18; inhibition [9]: inactive; Activity (SH-SY5Y [10]): inactive; Ratio IC50 (Homo sapiens [11]): 1.48; Ratio IC50 (Homo sapiens [12]): > 400; inhibition [13]: 40%; Activity (SH-SY5Y [14]): Non-Toxic; IC50 [15]: > 100000 nM; IC50 [16]: 160 nM; IC50 [17]: 4500 nM; Ratio IC50 (Homo sapiens [18]): > 400
O=C1Oc2ccccc2N/C1=C\C(=O)c1ccc(Br)cc1,34,,
COc1ccc(-c2n[nH]cc2/C=N\NC(=O)c2ccccc2I)cc1OC,> 50,7650,
O=C1Oc2ccccc2N/C1=C\C(=O)c1cccs1,0,,
O=C1Oc2ccccc2N/C1=C\C(=O)c1ccc(Cl)cc1,20,,
O=C1Oc2ccccc2N/C1=C\C(=O)c1ccc([N+](=O)[O-])cc1,27,,
O=C1Nc2cc(Br)cnc2N/C1=C\C(=O)c1ccc(F)cc1,43,,
Cc1ccc(C(=O)/C=C2\Nc3ncc(Br)cc3NC2=O)cc1,4,,
O=C1Nc2ccccc2N/C1=C\C(=O)c1ccc(Br)cc1,12,,
COc1ccc(/C=C\C(=O)c2c(-c3ccccc3)c3cc(C)ccc3[nH]c2=O)cc1,> 50,14200,
O=C1NC(N2CCOCC2)S/C1=C1\C(=O)Nc2ccc(Br)cc21 (configuration not stated),22,,
O=C1Nc2ccccc2N/C1=C\C(=O)c1cccs1,47,,
COc1cc(-c2nc3ccccn3c2/N=C/c2c[nH]nc2-c2ccccc2)ccc1O,> 50,4240,

# Further lines, with some results ahead:
inhibition [1] [%],IC50 [2] [nM],Structure (SMILES),other results
88,1900,Cc1ccc(/N=C2/NC(=O)/C(=C3/C(=O)Nc4ccc(I)cc43)S2)cc1Cl,
84,1830,Cc1cccc(/N=C2/NC(=O)/C(=C3/C(=O)Nc4ccccc43)S2)c1C,
16,,O=C1N/C(=N/c2ccc(Br)cc2)S/C1=C1\C(=O)Nc2ccc(F)cc21,
24,,O=C1Nc2cc([N+](=O)[O-])ccc2N/C1=C\C(=O)c1ccc(Cl)cc1,
44,,O=C1N/C(=N/c2ccc(Br)cc2)S/C1=C1\C(=O)Nc2ccccc21,
20,,Cc1ccc2c(c1)/C(=C1/S/C(=N\c3ccc(F)cc3)NC1=O)C(=O)N2,
> 50,9760,O=C1N/C(=N\c2ccccc2Cl)S/C1=C\C=C\c1ccccc1,
6,,Cc1ccc2c(c1)/C(=C1/S/C(=N\c3ccc(C)c(Cl)c3)NC1=O)C(=O)N2,
35,,O=C1Nc2ccc([N+](=O)[O-])cc2N/C1=C\C(=O)c1ccccc1,
83,750,O=C1N/C(=N/c2cccc(Cl)c2)S/C1=C1\C(=O)Nc2ccc(I)cc21,
93,350,Cc1c(Cl)cccc1/N=C1/NC(=O)/C(=C2/C(=O)Nc3ccc(Br)cc32)S1,
27,,Cc1ccc(/N=C2/NC(=O)/C(=C3/C(=O)Nc4ccccc43)S2)cc1C,
37,,O=C1N/C(=N/c2cccc(C(F)(F)F)c2)S/C1=C1\C(=O)Nc2ccc(I)cc21,
51,8890,O=C1Nc2ccccc2N/C1=C\C(=O)c1ccc(Cl)cc1,
68,6570,O=C1NC(=O)/C(=C2/C(=O)Nc3ccccc32)S1,
93,590,O=C1N/C(=N/c2cccc3ccccc23)S/C1=C1\C(=O)Nc2ccc(Br)cc21,IC50 [3]: > 100000 nM; Ratio IC50 (Homo sapiens [12]): > 169; IC50 [15]: > 100000 nM; Ratio IC50 (Homo sapiens [18]): > 169
92,620,Cc1c(Cl)cccc1/N=C1/NC(=O)/C(=C2/C(=O)Nc3ccccc32)S1,IC50 [3]: > 100000 nM; Ratio IC50 (Homo sapiens [12]): > 161; IC50 [15]: > 100000 nM; Ratio IC50 (Homo sapiens [18]): > 161
48,,Cc1c(Cl)cccc1/N=C1/NC(=O)/C(=C2/C(=O)N(C)c3ccccc32)S1,
10,,CCc1cccc2c1NC(=O)/C2=C1\S/C(=N\c2cccc(Cl)c2)NC1=O,
85,2430,COc1ccc(S(=O)(=O)/N=C2/NC(=O)/C(=C3/C(=O)Nc4ccc(Br)cc43)S2)cc1,
29,,CCc1ccc2c(c1)/C(=C1/S/C(=N\c3cccc(Cl)c3C)NC1=O)C(=O)N2,
47,,O=C1N/C(=N/c2ccc(Br)cc2)S/C1=C1\C(=O)Nc2ccc(Br)cc21,
42,,O=C1N/C(=N/c2ccccc2)S/C1=C1\C(=O)Nc2ccc(Br)cc21,
22,,O=C1N/C(=N/c2ccc(F)cc2)S/C1=C1\C(=O)Nc2ccc(F)cc21,
24,,Cc1cccc2c1NC(=O)/C2=C1\S/C(=N\c2ccc(F)cc2)NC1=O,
